Source: patent US20100249238A1, “PHARMACEUTICAL COMPOSITIONS COMPRISING SEMICARBAZONES AND THIOSEMICARBAZONES AND METHOD FOR TREATING INFLAMMATORY, PAINFUL AND FEBRILE CONDITIONS AND PREVENTING SIGNS AND SYMPTOMS OF INFLAMMATION” (priority 2007, published 2010)
Like-named read-outs stand apart in the source and are kept apart here. Marks after values point to notes of the source that are not given here.

Tests used:
[1] = test system: nociceptive response induced by formaldehyde; conditions: compared with first phase; Blackburn-Munro et al., Eur. J. Pharmacol. 445, 231, 2002; cited from earlier work
[2] = test system: fibrovascular tissue formation induced by cotton; assay: fibrovascular tissue formation induced by subcutaneous cotton implant; assay type: in vivo, mice; conditions: 200 mg/kg per day, per os, 7 days; cotton pellet
Procedure: In the model of fibrovascular tissue formation, a cotton pellet (10 mg) is subcutaneously implanted in the back of mice. After seven days, the mice are euthanized and the cotton pellet involved plus the surrounding fibrovascular tissue is removed and its mass determined. Carboxymethylcellulose 0.5%, a pharmaceutically acceptable excipient, was used for oral administration. BS (200 mg/kg·day, oral) was administered during seven days. Twenty-four hours after the last administration, the animals were euthanised and the mass of the cotton pellet plus the surrounding fibrovascular tissue was determined as described.

[3] = test system: nociceptive response induced by heat; assay: nociceptive response induced by heat in the hot plate model; assay type: in vivo; conditions: mice; 54° C.; 10, 25 or 50 mg/kg i.p. -30 min; 100 or 200 mg/kg oral -60 min
Procedure: In this model, the mice were exposed to a heat metal surface (54° C.) and the latency for licking the paws or jumping off the plate was determined. Dimethyl sulfoxide (DMSO) 25%+Tween 80 10% in saline was the vehicle used for intraperitoneal administration and carboxymethylcellulose 0.5%, a pharmaceutically acceptable excipient, was used for oral administration. Thirty or 60 min after intraperitoneal or oral administration, respectively, the mice were exposed to the hot plate and the latency for displaying the nociceptive behavior was determined as described.

[4] = test system: paw edema induced by carrageenan; assay: paw edema induced by carrageenan in rats; assay type: in vivo; conditions: 50 mg/kg i.p. -30 min or 200 mg/kg oral -60 min
Procedure: The paw edema was assessed using a pletismometer (model 7140, Ugo Basile, Italy). The basal paw volume was determined before any treatment and the edema was induced by intraplantar injection of carrageenan into the right hindpaw (1%, 50 μl, suspended in saline). Dimethyl sulfoxide (DMSO) 25%+Tween 80 10% in saline was the vehicle used for intraperitoneal administration and carboxymethylcellulose 0.5%, a pharmaceutically acceptable excipient, was used for oral administration. Thirty or 60 min after intraperitoneal or oral administration, respectively, carrageenan (1%, 50 μl, suspended in saline) was injected and the paw edema was evaluated as described.

[5] = test system: mechanical allodynia induced by carrageenan; assay: mechanical allodynia induced by carrageenan in rats (nylon filament); assay type: in vivo; conditions: 50 mg/kg i.p. -30 min, 100 or 200 mg/kg oral -60 min
Procedure: (§1) In the model of thermal allodynia, the latency for paw removal after application of a thermal stimulus is assessed in the Hargreaves apparatus (model 7370, Ugo Basile, Italy). In the model of mechanical allodynia, the frequency of paw withdrawal to a series of ten touches with a nylon filament to the plantar surface of the right hind paw is determined. Dimethyl sulfoxide (DMSO) 25%+Tween 80 10% in saline was the vehicle used for intraperitoneal administration and carboxymethylcellulose 0.5%, a pharmaceutically acceptable excipient, was used for oral administration. Thirty or 60 min after intraperitoneal or oral administration, respectively, carrageenan (1%, 50 μl, suspended in saline) was injected into the plantar surface of the right hindpaw and the latency for paw removal after application of a thermal stimulus or the frequency of paw withdrawal to the mechanical stimulus was evaluated as described.

[6] = test system: nociceptive response induced by formaldehyde; assay: nociceptive response induced by formaldehyde in mice; assay type: in vivo
Procedure: In the nociceptive response induced by formaldehyde (0.92%, 20 μL), the inflammatory stimulus is injected subcutaneously into the dorsum of the right hind paw of male Swiss mice. The time the animal spent licking its injected paw was determined from 0 to 5 min (first phase) and from 15 to 30 min (second phase) after formaldehyde injection. Dimethyl sulfoxide (DMSO) 25%+Tween 80 10% in saline was the vehicle used for intraperitoneal administration and carboxymethylcellulose 0.5%, a pharmaceutically acceptable excipient, was used for oral administration. Thirty or 60 min after intraperitoneal or oral administration, respectively, formaldehyde was injected and the nociceptive behavior evaluated as described.

[7] = test system: cell migration induced by carrageenan; assay: cell migration induced by intraperitoneal injection of carrageenan in rats; assay type: in vivo; conditions: 200 mg/kg oral -60 min
Procedure: In this model, carrageenan (500 μg, 1 ml, suspended in saline) is injected into the peritoneal cavity of rats. After three hours, the animals are euthanized and 10 ml phosphate buffer are injected into the peritoneal cavity. The peritoneal lavage is removed and the centrifuged. The supernatant is removed and the pellet is suspended in a 2 ml of phosphate buffer. An aliquot of 20 μl is added to a 400 μl Turk's solution. The number of cells is determined by microscopy.
Carboxymethylcellulose 0.5%, a pharmaceutically acceptable excipient, was used for oral administration. BS (200 mg/kg, oral, −60 min) inhibited cell migration induced by carrageenan.

motor activity = motor activity of mice in a rotarod; assay type: in vivo; conditions: Swiss male mice; 10, 25 or 50 mg/kg intraperitoneal (30 min) or 100 or 200 mg/kg oral (60 min)
Procedure: The effect of BS on motor activity of Swiss male mice (20-30 g) was evaluated in order to investigate whether inhibition of nociceptive behavior in animals treated with BS would be a result of a central depressive effect. Their motor activity was evaluated in a rotarod. A day before the experiment, the mice were trained in the apparatus. During the experiment, they were put in a rotarod (14 rpm) and the time they stayed in the apparatus was determined. One minute was the cut-off time. After basal measurements, the animals were treated with BS (10, 25 or 50 mg/kg, intraperitoneal or 100 or 200 mg/kg, oral). Dimethyl sulfoxide (DMSO) 25%+Tween 80 10% in saline was the vehicle used for intraperitoneal administration and carboxymethylcellulose 0.5%, a pharmaceutically acceptable excipient, was used for oral administration. Thirty or 60 min after intraperitoneal or oral administration, respectively, the animals were evaluated again in the rotarod apparatus.

rats = assay: oral acute toxicity, OECD 420 fixed-dose procedure; assay type: in vivo
Procedure: (§2) Toxicological studies were based on established protocols (OECD Test Guidelines) internationally recognized as a reference standard tool for chemical tests.
Only one dose of substances (300 mg/kg or 2000 mg/kg) was administered orally in rats. A careful observation of the rats was made 30 minutes later and repeated hourly up to 12 h. […] After that, the animals were euthanised and submitted to macroscopic and microscopic necropsy.
(§3) Laboratory analyses for acute (macroscopic and microscopic analyses) and subacute (macroscopic and microscopic analyses, biochemical and hematologic analysis) toxicity tests were carried out.

[8] = test system: thermal allodynia induced by carrageenan; assay: thermal allodynia induced by carrageenan in rats (Hargreaves apparatus); assay type: in vivo; conditions: 50 mg/kg i.p. -30 min, 100 or 200 mg/kg oral -60 min
Procedure: as §1

[9] = oral subacute toxicity, OECD 407 repeated dose 28 days, body weight; assay type: in vivo, rats; conditions: for Final body mass / Initial body mass: BS, mean ± sem
Procedure: as §2
The OECD 407 guideline—Repeated-dose Procedure for Assessing Oral Subacute Toxicity (OECD, 1995) was used. The test substance was administered orally daily (from 11:00 am to 1:00 pm) during 28 days. The animals were observed daily during the whole period. Doses of 100, 300, 500 mg/kg for BS were used.
as §3

[10] = test system: febrile response induced by endotoxin of E. coli; assay: febrile response induced by bacterial endotoxin in rats; assay type: in vivo; conditions: 200 mg/kg oral -60 min
Procedure: In this model, endotoxin of E. coli (50 μg/kg) is injected intravenously in rats and the colonic temperature is determined during 6 h.
Carboxymethylcellulose 0.5%, a pharmaceutically acceptable excipient, was used for oral administration. BS (200 mg/kg, oral, −60 min) inhibited the febrile response induced by endotoxin.

[11] = females, Satellite group, n = 5

SMILES: NC(=O)N1c2ccccc2C=Cc2ccccc21 [carbamazepine]
- second phase of the nociceptive response induced by formaldehyde [1]: inhibit more effectively the second phase

SMILES: NC(=O)NN=Cc1ccccc1 [BS, benzaldehyde semicarbazone]
- fibrovascular tissue formation [2]: inhibited
- antinociceptive effect in the hot plate model [3]: did not induce an antinociceptive effect
- paw edema induced by carrageenan [4]: inhibited
- mechanical allodynia induced by carrageenan [5]: inhibited
- first phase of the nociceptive response induced by formaldehyde ([6]; 50 mg/kg intraperitoneal, only this dose, 0 to 5 min): inhibited
- second phase of the nociceptive response induced by formaldehyde ([6]; 10, 25 or 50 mg/kg i.p. or 100 or 200 mg/kg oral, 15 to 30 min): markedly inhibited
- cell migration induced by carrageenan [7]: inhibited
- motor activity (time stayed in the rotarod) (motor activity): did not alter the motor activity
- Observed signs: general activity score (normal 4) (rats; 300 mg/kg, 30' - 9 h): General activity (3),
- Observed signs: grooming score (normal 0) (rats; 300 mg/kg, 30' - 9 h): grooming (1)
- Observed signs (rats; 300 mg/kg, 9 h - 14th day): No toxicity signs
- Observed signs: ataxia score (normal 0) (rats; 2000 mg/kg, 30' - 12 h): 4
- Observed signs: cage corner score (normal 0) (rats; 2000 mg/kg, 30' - 12 h): 1
- Observed signs: piloerection score (normal 0) (rats; 2000 mg/kg, 30' - 12 h): piloerection (1),
- Observed signs: prostration score (normal 0) (rats; 2000 mg/kg, 30' - 12 h): prostration (3)
- Observed signs (rats; 2000 mg/kg, from the 2nd day): No toxicity signs
- category in the Globally Harmonized System for the Classification and Labeling of Chemicals (rats; from a death at the highest dose (2.000 mg/kg) in the acute toxicity test): 5
- signs in the acute toxicity test (rats; rats, 300 mg/kg oral single dose, reversible after few hours): reduction of motor activity and grooming
- reversibility of signs of toxicity (rats; rats, 2000 mg/kg oral single dose): second day
- T/M = number of rats treated/number of deaths (rats; single oral dose 300 mg/kg): 5/0
- T/M = number of rats treated/number of deaths (rats; single oral dose 2000 mg/kg): 5/1*
- thermal allodynia induced by carrageenan [8]: inhibited
- Final body mass [9, 11]: 197.27 ± 14.44^AB
- Initial body mass [9, 11]: 198.10 ± 15.06^A
- Final body mass ([9]; females, dose 100, 28 days, n = 5): 230.30 ± 15.42^A
- Initial body mass ([9]; females, dose 100, n = 5): 207.60 ± 12.62^A
- Final body mass ([9]; females, dose 300, 28 days, n = 5): 208.38 ± 24.28^AB
- Initial body mass ([9]; females, dose 300, n = 5): 192.30 ± 13.34^A
- Final body mass ([9]; females, dose 500, 28 days, n = 5): 170.00 ± 17.22^B
- Initial body mass ([9]; females, dose 500, n = 5): 196.60 ± 8.20^A
- Final body mass ([9]; males, Satellite group, death of an animal during treatment): 222.57 ± 29.34^B*
- Initial body mass ([9]; males, Satellite group, n = 5): 197.00 ± 4.51^A
- Final body mass ([9]; males, dose 100, 28 days, n = 5): 340.20 ± 50.91^A
- Initial body mass ([9]; males, dose 100, n = 5): 240.87 ± 20.07^A
- Final body mass ([9]; males, dose 300, 28 days, n = 5): 258.53 ± 25.76^B
- Initial body mass ([9]; males, dose 300, n = 5): 192.50 ± 8.32^A
- Final body mass ([9]; males, dose 500, 28 days, n = 5): 240.00 ± 46.65^B
- Initial body mass ([9]; males, dose 500, n = 5): 225.30 ± 34.72^A
- body weight gain ([9]; rats, higher doses, oral daily 28 days): reduced body weight gain
- febrile response induced by endotoxin [10]: inhibited

SMILES: O=C1NC(=O)C(c2ccccc2)(c2ccccc2)N1 [phenyloin]
- second phase of the nociceptive response induced by formaldehyde [1]: inhibit more effectively the second phase

SMILES: Nc1nnc(-c2cccc(Cl)c2Cl)c(N)n1 [lamotrigine]
- second phase of the nociceptive response induced by formaldehyde [1]: inhibit more effectively the second phase
